Measurements from article PMC12282101, “Heat shock protein 90 chaperone activity is required for hepatitis A virus replication” (Journal of Virology, 2025).
Structures can show the parent of a compound that is named as a salt.

Tests used:
18f-NLuc reporter virus = assay: microbe, parasite or virus in culture; type: cell-based, Hepatitis A virus; conditions: for activity at 10 µM: Hepatovirus A, Huh-7.5.1, 72 h, read-out: Normalized HAV production
Huh-7.5.1 cells = assay: Cell viability in the chemical screen (Cell TiterGlo); conditions: 10 µM compound, 72 h

Compound	activity at 10 µM (18f-NLuc reporter virus)	Viability Percent DMSO (Huh-7.5.1 cells)	Normalized HAV production (18f-NLuc reporter virus)
C=C(C)[C@@H]1CC[C@]2(C(=O)O)CC[C@]3(C)[C@H](CC[C@@H]4[C@@]5(C)CC[C@H](O)C(C)(C)[C@@H]5CC[C@]43C)[C@@H]12 [Betulinic acid]	75%	116 Percent DMSO	
CC(=O)OCC(CCn1cnc2cnc(N)nc21)COC(C)=O [Famciclovir]	115%	123 Percent DMSO	
C[C@@H]1CC[C@H]2[C@@H](C)C(=O)O[C@@H]3O[C@@]4(C)CC[C@@H]1[C@]32OO4 [Artemisinin]	76%	101 Percent DMSO	
Cl.N=C(N=C(N)N)N1CCOCC1 [Moroxydine hydrochloride]		125 Percent DMSO	1.21
Cc1cccc(C)c1OCC(=O)N[C@@H](Cc1ccccc1)[C@@H](O)C[C@H](Cc1ccccc1)NC(=O)[C@H](C(C)C)N1CCCNC1=O [Lopinavir]	43%	126 Percent DMSO	
NC(=O)c1nc(F)c[nH]c1=O [Favipiravir]	56%	128 Percent DMSO	
CC(=O)OCC(=O)[C@@]1(O)CC[C@H]2[C@@H]3CCC4=CC(=O)C=C[C@]4(C)[C@@]3(Cl)[C@@H](Cl)C[C@@]21C [Dichlorisone Acetate]	97%	105 Percent DMSO	
CN(C)C[C@H](O)Cn1c2ccc(Br)cc2c2cc(Br)ccc21 (racemic) [Wiskostatin]	101%	92 Percent DMSO	
CC(C)c1cc(Oc2c(Cl)cc(-n3nc(C#N)c(=O)[nH]c3=O)cc2Cl)n[nH]c1=O [MGL3196]	136%	118 Percent DMSO	
O=C(Nc1ccc(O)cc1)c1ccccc1O [Osalmid]	132%	93 Percent DMSO	
O=C(Nc1nc2ccc3scnc3c2s1)c1ccc2ccccc2c1 [KIN1148]		107 Percent DMSO	1.39
CC(C)OC(=O)[C@H](C)N[P@](=O)(OC[C@H]1O[C@@H](n2ccc(=O)[nH]c2=O)[C@](C)(F)[C@@H]1O)Oc1ccccc1 [Sofosbuvir]	38%	130 Percent DMSO	
O=C(O)c1cc(=O)[nH]c(=O)[nH]1 [Orotic acid]	85%	105 Percent DMSO	
Cc1cc(C)c(Nc2ccnc(Nc3ccc(C#N)cc3)n2)c(C)c1 [Dapivirine]	14%	114 Percent DMSO	
CC(C)(C)C#Cc1cc(N(C(=O)[C@H]2CC[C@H](C)CC2)[C@H]2CC[C@H](O)CC2)c(C(=O)O)s1 [Lomibuvir]	97%	125 Percent DMSO	
Cc1nnc(C(=O)NC(C)(C)c2nc(C(=O)NCc3ccc(F)cc3)c(O)c(=O)n2C)o1 [Raltegravir]	124%	132 Percent DMSO	
CC(N)C12CC3CC(CC(C3)C1)C2 (stereo not shown) [Rimantadine hydrochloride]	113%	98 Percent DMSO	
CC1(C)S[C@@H]2[C@H](NC(=O)[C@H](NC(=O)N3CCNC3=O)c3ccccc3)C(=O)N2[C@H]1C(=O)O [Azlocillin sodium]	132%	98 Percent DMSO	
COc1c(-c2ccc3cc(NS(C)(=O)=O)ccc3c2)cc(-n2ccc(=O)[nH]c2=O)cc1C(C)(C)C [Dasabuvir]	14%	116 Percent DMSO	
CCC[C@H](NC(=O)[C@@H]1[C@H]2CCC[C@H]2CN1C(=O)[C@@H](NC(=O)[C@@H](NC(=O)c1cnccn1)C1CCCCC1)C(C)(C)C)C(=O)C(=O)NC1CC1 [Telaprevir]	73%	119 Percent DMSO	
C[C@@H](c1ncncc1F)[C@](O)(Cn1cncn1)c1ccc(F)cc1F [Voriconazole]	133%	123 Percent DMSO	
CC(C)CN(C[C@@H](O)[C@H](Cc1ccccc1)NC(=O)O[C@H]1CCOC1)S(=O)(=O)c1ccc(N)cc1 [Amprenavir]	91%	121 Percent DMSO	
O=C(O[C@@H]1Cc2c(O)cc(O)cc2O[C@@H]1c1cc(O)c(O)c(O)c1)c1cc(O)c(O)c(O)c1 [(-)-Epigallocatechin Gallate]	105%	125 Percent DMSO	
COC(=O)c1cc(OC)c2c(c1-c1c(CO)cc(OC)c3c1OCO3)OCO2 [Bicyclol]	105%	115 Percent DMSO	

Compound	activity at 10 µM (18f-NLuc reporter virus)	Viability Percent DMSO (Huh-7.5.1 cells)	Normalized HAV production (18f-NLuc reporter virus)
O=c1[nH]cc(F)c(=O)[nH]1 [Fluorouracil]	84%	103 Percent DMSO	
Cc1c(O)cccc1C(=O)N[C@@H](CSc1ccccc1)[C@H](O)CN1C[C@H]2CCCC[C@H]2C[C@H]1C(=O)NC(C)(C)C [Nelfinavir Mesylate]	69%	88 Percent DMSO	
Cc1cc(O)cc(C)c1Cl [Chloroxylenol]	90%	108 Percent DMSO	
C=C1CC[C@@H]2[C@](C)(CO)[C@H](O)CC[C@@]2(C)[C@@H]1C/C=C1/C(=O)OC[C@H]1O [Andrographolide]	86%	106 Percent DMSO	
CC(=O)Oc1c(C)c(C)c2c(c1C)CCC(C)(CCC[C@H](C)CCC[C@H](C)CCCC(C)C)O2 (stereo partly shown) [Vitamin E Acetate]	133%	82 Percent DMSO	
C[C@H]1CC[C@@]2(O)C(C)(C)[C@@H]3CC[C@@]2(C)[C@H]1C3 [Patchouli alcohol]		122 Percent DMSO	1.10
CC1(C)CC[C@]2(C(=O)O)CC[C@]3(C)C(=CC[C@@H]4[C@@]5(C)CCC(=O)C(C)(C)[C@@H]5CC[C@]43C)[C@@H]2C1 [Oleanonic Acid]	935%	1.23 Percent DMSO	
CCCCCCCCCC(=O)O[C@H]1CC[C@H]2[C@@H]3CCC4=CC(=O)CC[C@@H]4[C@H]3CC[C@]12C [Nandrolone decanoate]	117%	113 Percent DMSO	
CO/N=C(\C(=O)N[C@@H]1C(=O)N2C(C(=O)O)=C(COC(C)=O)CS[C@H]12)c1csc(N)n1 [Cefotaxime sodium]	80%	113 Percent DMSO	
CO/N=C(\C(=O)N[C@@H]1C(=O)N2C(C(=O)O)=C(C[N+]3(C)CCCC3)CS[C@H]12)c1csc(N)n1 [Cefepime Dihydrochloride Monohydrate]	73%	116 Percent DMSO	
CCOC(=O)c1c(CSc2ccccc2)n(C)c2cc(Br)c(O)c(CN(C)C)c12.Cl [Arbidol hydrochloride]		105 Percent DMSO	0.78
CC(=O)Oc1ccccc1C(=O)Nc1ncc([N+](=O)[O-])s1 [Nitazoxanide]	24%	41 Percent DMSO	
O=c1c2ccccc2[se]n1-c1ccccc1 [Ebselen]	56%	123 Percent DMSO	
Cc1cn([C@H]2C[C@H](N=[N+]=[N-])[C@@H](CO)O2)c(=O)[nH]c1=O [Zidovudine]	131%	92 Percent DMSO	
OC[C@H]1O[C@@H](O[C@@H]2OC=C[C@H]3[C@H](O)[C@@H]4O[C@]4(CO)[C@@H]23)[C@H](O)[C@@H](O)[C@@H]1O [Catalpol]	98%	128 Percent DMSO	
Nc1nc(NC2CC2)c2ncn([C@H]3C=C[C@@H](CO)C3)c2n1 [Abacavir]	87%	119 Percent DMSO	
Cc1cn([C@H]2O[C@@H](CO)[C@H](O)[C@H]2F)c(=O)[nH]c1=O [Clevudine]	84%	132 Percent DMSO	
CC(C)(C)C(=O)OCOP(=O)(COCCn1cnc2c(N)ncnc21)OCOC(=O)C(C)(C)C [Adefovir dipivoxil]	138%	74 Percent DMSO	
COc1ccc([C@H]2OC[C@H]3[C@@H]2CO[C@H]3c2ccc(O[C@@H]3O[C@H](CO)[C@@H](O)[C@H](O)[C@H]3O)c(OC)c2)cc1OC [Forsythin]		127 Percent DMSO	1.06
Cc1nc(N(C)C(=O)Cc2ccc(-c3ccccn3)cc2)sc1S(N)(=O)=O [Pritelivir]	78%	127 Percent DMSO	
O=C1Nc2ccc(Cl)cc2[C@@](C#CC2CC2)(C(F)(F)F)O1 [Efavirenz]	46%	165 Percent DMSO	
Clc1ccc(Cn2c(CN3CCCC3)nc3ccccc32)cc1 [Clemizole]	58%	166 Percent DMSO	
O=c1[nH]c(=O)n([C@H]2C[C@H](O)[C@@H](CO)O2)cc1/C=C/Br [Brivudine]	94%	110 Percent DMSO	
